Test system: gene expression in Col-0 seedling shoots
Assay: Microarray analysis (ATH1 Affymetrix) after BL or abrasin treatment
Type: in vivo, Arabidopsis
Settings: 120 min
Protocol: FIG. 14: Clustering of gene expression profiles by QT-clust analysis. Clusters illustrating the major patterns of the data sets. Points: BIK-30: 30 μM abrasin 30 min; BL-30: 1 μM brassinolide 30 min; DMSO-30: control DMSO 30 min; BIK-120: 30 μM abrasin 120 min; BL-120: 1 μM brassinolide 120 min; DMSO-120: control DMSO 120 min.
Col-0 seeds were germinated vertically on ½ MS medium for 7 days under 16 h light/8 h dark cycles. The seedlings were overlaid with liquid ½ MS medium containing 1 μM brassinolide (BL, Fuji Chemical Industries, Ltd., Toyama, Japan), 30 μM abrasin (BIK, ChemBridge Corporation) and DMSO and treated for 30 and 120 min. The shoot parts were collected for RNA isolation. All sampling points were performed in three independent experiments. RNA was extracted using RNeasy kit (Qiagene). […] total RNA per array was used to hybridise the ATH1 Affymetrix Arabidopsis arrays according to standard procedure. The overrepresentation analyses were performed using BiNGO software (Maere et al., 2005).
We performed a microarray analysis using the Arabidopsis whole genome chip (Affymetix) to determine whether abrasin activated the expression of BR-inducible genes at transcriptional level. Wild-type Col-0 seedlings were exposed to 1 μM BL, 30 μM ABRASIN and DMSO (mock-treatment) for two time points (30 min and 120 min) and the shoot parts were collected for RNA isolation. The analysis of the variance of the normalized gene expression data took in account the variability parameters affecting the expression level: type of hormone treatment, duration of treatment and the interaction between these two.

## CC(C)[C@H](C)[C@@H](O)[C@H](O)[C@@H](C)[C@H]1CC[C@H]2[C@@H]3COC(=O)[C@H]4C[C@H](O)[C@H](O)C[C@]4(C)[C@H]3CC[C@]12C [BL, brassinolide, reference compound]
  Fold-change AT4G16780 homeobox-leucine zipper protein 4 (HAT4)/HD-ZIP protein: 0.51
  Fold-change AT4G17250 expressed protein: 1.82
  Fold-change AT4G17460 homeobox-leucine zipper protein 1 (HAT1)/HD-ZIP protein 1: 0.19
  Fold-change AT4G21510 F-box family protein: 2.09
  Fold-change AT4G23030 MATE efflux protein-related: 2.20
  Fold-change AT4G23070 rhomboid family protein: 2.03
  Fold-change AT4G23810 WRKY family transcription factor: 0.55
  Fold-change AT4G24160 hydrolase, alpha/beta fold family protein: 1.14
  Fold-change AT4G25620 hydroxyproline-rich glycoprotein family protein: 0.86
  Fold-change AT4G25780 pathogenesis-related protein: 0.26
  Fold-change AT4G27970 C4-dicarboxylate transporter/malic acid transport family protein: 1.28
  Fold-change AT4G28240 wound-responsive protein-related: 0.41
  Fold-change AT4G28490 leucine-rich repeat transmembrane protein kinase, putative: 0.78
  Fold-change AT4G28703 expressed protein: 0.89
  Fold-change AT4G28780 GDSL-motif lipase/hydrolase family protein: 2.29
  Fold-change AT4G29070 expressed protein: 0.74
  Fold-change AT4G30080 transcriptional factor B3 family protein: 0.49
  Fold-change AT4G31020 expressed protein: 0.67
  Fold-change AT4G32280 auxin-responsive AUX/IAA family protein (IAA29): 0.22
  Fold-change AT4G33050 calmodulin-binding family protein: 0.57
  Fold-change AT4G33700 CBS domain-containing protein: 0.51
  Fold-change AT4G34610 homeodomain-containing protein: 0.37
  Fold-change AT4G36110 auxin-responsive protein: 7.86
  Fold-change AT4G36780 brassinosteroid signalling positive regulator-related: 0.09
  Fold-change AT4G37240 expressed protein: 2.33
  Fold-change AT4G37290 expressed protein: 0.40
  Fold-change AT4G37590 phototropic-responsive NPH3 family protein: 0.53
  Fold-change AT4G38840 auxin-responsive protein (SAUR14): 2.53
  Fold-change AT4G38850 auxin-responsive protein (SAUR-AC1): 3.03
  Fold-change AT4G38860 auxin-responsive protein (SAUR16): 3.40
  Fold-change AT4G39400 brassinosteroid insensitive 1 (BRI1): 0.57
  Fold-change AT5G02020 expressed protein: 0.96
  Fold-change AT5G05690 cytochrome P450 90A1 (CYP90A1) (CYP90) (CPD): 0.41
  Fold-change AT5G07690 myb family transcription factor (MYB29): 0.40
  Fold-change AT5G08130 basic helix-loop-helix (bHLH) family protein (BIM2): 0.42
  Fold-change AT5G12050 expressed protein: 0.34
  Fold-change AT5G13180 no apical meristem (NAM) family protein: 0.50
  Fold-change AT5G13740 sugar transporter family protein: 0.36
  Fold-change AT5G14730 expressed protein: 0.55
  Fold-change AT5G16200 50S ribosomal protein-related: 0.20
  Fold-change AT5G16980 NADP-dependent oxidoreductase: 1.26
  Fold-change AT5G18750 DNAJ heat shock N-terminal domain-containing protein: 0.56
  Fold-change AT5G19200 short-chain dehydrogenase/reductase (SDR) family protein: 2.47
  Fold-change AT5G19340 expressed protein: 0.39
  Fold-change AT5G24030 C4-dicarboxylate transporter/malic acid transport family protein: 1.90
  Fold-change AT5G24660 expressed protein: 2.26
  Fold-change AT5G25240 expressed protein: 3.69
  Fold-change AT5G25930 leucine-rich repeat family protein: 0.63
  Fold-change AT5G27350 sugar-porter family protein 1 (SFP1): 2.04
  Fold-change AT5G27670 histone H2A: 0.50
  Fold-change AT5G38310 expressed protein: 0.93
  Fold-change AT5G38990; AT5G39000 [AT5G38990, protein kinase family protein: 0.74
  Fold-change AT5G39050 transferase family protein: 0.62
  Fold-change AT5G39610 no apical meristem (NAM) family protein: 0.22
  Fold-change AT5G39970 expressed protein: 0.99
  Fold-change AT5G42830 transferase family protein: 0.62
  Fold-change AT5G47370 homeobox-leucine zipper protein 2 (HAT2): 0.87
  Fold-change AT5G48070 putative xyloglucan endotransglycosylase/hydrolase: 1.24
  Fold-change AT5G48540 33 kDa secretory protein-related: 0.55
  Fold-change AT5G51550 phosphate-responsive 1 family protein: 0.37
  Fold-change AT5G54490 calcium-binding EF-hand protein, putative: 1.75
  Fold-change AT5G54860 integral membrane transporter family protein: 0.82
  Fold-change AT5G55970 zinc finger (C3HC4-type RING finger) family protein: 1.82
  Fold-change AT5G56980 expressed protein: 0.20
  Fold-change AT5G57190 phosphatidylserine decarboxylase: 0.60
  Fold-change AT5G57780 expressed protein: 0.12
  Fold-change AT5G59080 expressed protein: 0.53
  Fold-change AT5G60200 Dof-type zinc finger domain-containing protein: 1.67
  Fold-change AT5G60270 lectin protein kinase family protein: 1.82
  Fold-change AT5G60630 expressed protein: 1.15
  Fold-change AT5G61600 encodes a member of the ERF (ethylene response factor): 2.06
  Fold-change AT5G62360 invertase/pectin methylesterase inhibitor family protein: 0.45
  Fold-change AT5G65310 homeobox-leucine zipper protein 5 (HB-5)/HD-ZIP transcription factor 5: 0.27
  Fold-change AT5G66420 expressed protein: 0.43
  Fold-change AT5G66590 allergen V5/Tpx-1-related family protein: 0.58
  Fold-change AT5G67450 zinc finger (C2H2 type) protein 1 (AZF1): 0.89
245479_at, Cluster 6
  Fold-change of gene AT4G16140 (proline-rich family protein): 0.75
245543_at, Cluster 7
  Fold-change of gene AT4G15260 (UDP-glucoronosyl/UDP-glucosyl transferase family protein): 0.67
245885_at, Cluster 5
  Fold-change of gene AT5G09440 (phosphate-responsive protein, putative): 0.13
246389_at, Cluster 10
  Fold-change of gene AT1G77380 (amino acid carrier): 0.40
246516_at, Cluster 5
  Fold-change of gene AT5G15740 (expressed protein): 0.69
247177_at, Cluster 5
  Fold-change of gene AT5G65300 (expressed protein): 0.36
247205_at, Cluster 10
  Fold-change of gene AT5G64890 (expressed protein): 0.85
247351_at, Cluster 9
  Fold-change of gene AT5G63790 (no apical meristem (NAM) family protein): 0.27
247444_at, Cluster 7
  Fold-change of gene AT5G62630 (expressed protein): 1.26
247601_at, Cluster 10
  Fold-change of gene AT5G60850 (Dof-type zinc finger domain-containing protein): 1.10
247704_at, Cluster 9
  Fold-change of gene AT5G59510 (expressed protein): 0.13
247774_at, Cluster 5
  Fold-change of gene AT5G58660 (oxidoreductase. 2OG-Fe(II) oxygenase family protein): 2.85
248190_at, Cluster 5
  Fold-change of gene AT5G54120 (expressed protein): 0.94
248191_at, Cluster 5
  Fold-change of gene AT5G54130 (calcium-binding EF hand family protein): 0.88
248282_at, Cluster 6
  Fold-change of gene AT5G52900 (expressed protein): 0.50
248646_at, Cluster 9
  Fold-change of gene AT5G49100 (expressed protein): 0.38
250012_x_at, Cluster 6
  Fold-change of gene AT5G18060 (auxin-responsive protein): 0.28
250493_at, Cluster 9
  Fold-change of gene AT5G09800 (U-box domain-containing protein): 0.30
250537_at, Cluster 8
  Fold-change of gene AT5G08565 (expressed protein): 0.78
250907_at, Cluster 5
  Fold-change of gene AT5G03670 (expressed protein): 0.37
251072_at, Cluster 5
  Fold-change of gene AT5G01740 (expressed protein): 0.47
251176_at, Cluster 10
  Fold-change of gene AT3G63380 (calcium-transporting ATPase): 0.10
251342_at, Cluster 9
  Fold-change of gene AT3G60690 (auxin-responsive family protein): 0.27
252586_at, Cluster 10
  Fold-change of gene AT3G45610 (Dof-type zinc finger domain): 1.05
252646_at, Cluster 5
  Fold-change of gene AT3G44610 (protein kinase family protein): 1.03
253255_at, Cluster 6
  Fold-change of gene AT4G34760 (auxin-responsive family protein): 0.62
253281_at, Cluster 7
  Fold-change of gene AT4G34138 (UDP-glucoronosyl/UDP-glucosyl transferase family protein): 1.74
253483_at, Cluster 5
  Fold-change of gene AT4G31910 (transferase family protein): 0.78
253617_at, Cluster 5
  Fold-change of gene AT4G30410 (expressed protein): 0.45
253629_at, Cluster 5
  Fold-change of gene AT4G30450 (glycine-rich protein): 0.59
253999_at, Cluster 9
  Fold-change of gene AT4G26200 (1-aminocyclopropane-1-carboxylate synthase): 0.11
255403_at, Cluster 6
  Fold-change of gene AT4G03400 (auxin-responsive GH3 family protein): 0.48
255443_at, Cluster 7
  Fold-change of gene AT4G02700 (sulfate transporter): 1.20
255926_at, Cluster 8
  Fold-change of gene AT1G22190 (AP2 domain-containing transcription factor): 0.89
256528_at, Cluster 6
  Fold-change of gene AT1G66140 (zinc finger (C2H2 type) family protein): 0.46
256762_at, Cluster 8
  Fold-change of gene AT3G25655 (expressed protein): 0.12
256818_at, Cluster 7
  Fold-change of gene AT3G21420 (oxidoreductase, 2OG-Fe(II) oxygenase family protein): 1.29
257066_at, Cluster 5
  Fold-change of gene AT3G18280 (protease inhibitor/seed storage/lipid transfer protein): 0.92
257506_at, Cluster 6
  Fold-change of gene AT1G29440 (auxin-responsive family protein): 0.34
257746_at, Cluster 5
  Fold-change of gene AT3G29200 (chorismate mutase, chloroplast (CM1)): 0.66
259364_at, Cluster 8
  Fold-change of gene AT1G13260 (DNA-binding protein RAV1 (RAV1)): 0.67
259773_at, Cluster 6
  Fold-change of gene AT1G29500 (auxin-responsive protein): 0.39
259783_at, Cluster 6
  Fold-change of gene AT1G29510 (auxin-responsive protein): 0.36
259784_at, Cluster 6
  Fold-change of gene AT1G29450 (auxin-responsive protein): 0.37
259787_at, Cluster 6
  Fold-change of gene AT1G29460 (auxin-responsive protein): 0.28
259875_s_at, Cluster 7
  Fold-change of gene AT1G76690; AT1G76680 ([AT1G76690, 12-oxophytodienoate reductase (OPR2)): 0.89
259985_at, Cluster 8
  Fold-change of gene AT1G76620 (expressed protein): 0.37
260243_at, Cluster 10
  Fold-change of gene AT1G63720 (expressed protein): 0.17
260727_at, Cluster 8
  Fold-change of gene AT1G48100 (glycoside hydrolase family 28 protein): 1.16
261023_at, Cluster 7
  Fold-change of gene AT1G12200 (flavin-containing monooxygenase family protein): 1.40
261203_at, Cluster 6
  Fold-change of gene AT1G12845 (expressed protein): 0.47
261768_at, Cluster 6
  Fold-change of gene AT1G15550 (gibberellin 3-beta-dioxygenase): 0.52
261892_at, Cluster 9
  Fold-change of gene AT1G80840 (WRKY family transcription factor): 0.05
262040_at, Cluster 6
  Fold-change of gene AT1G80080 (leucine-rich repeat family protein): 0.39
262050_at, Cluster 8
  Fold-change of gene AT1G80130 (expressed protein): 0.36
262505_at, Cluster 10
  Fold-change of gene AT1G21680 (expressed protein): 1.29
262543_at, Cluster 6
  Fold-change of gene AT1G34245 (expressed protein): 0.67
263126_at, Cluster 7
  Fold-change of gene AT1G78460 (SOUL heme-binding family protein): 1.49
264279_s_at, Cluster 7
  Fold-change of gene AT1G78820; AT1G78830 ([AT1G78820, curculin-like (mannose-binding) lectin family protein): 0.86
265877_at, Cluster 6
  Fold-change of gene AT2G42380 (bZIP transcription factor family protein): 0.39
266124_at, Cluster 8
  Fold-change of gene AT2G45080 (cyclin family protein): 0.27

From patent US8273775B2, “Non-steroidal brassinosteroid mimetic” (priority 2006, dated 2012)
